ChEMBL document CHEMBL4130586, “Antiprotozoal Sesquiterpene Lactones and Other Constituents from Tarchonanthus camphoratus and Schkuhria pinnata” (J Nat Prod, 2018)

How the values were obtained:
[1] = test system: Trypanosoma brucei rhodesiense; test: Antitrypanosomal activity against Trypanosoma brucei rhodesiense STIB 900 bloodstream forms after 72 hrs by alamar blue staining based fluorescence assay; type: functional, organism-based; settings: STIB 900, 72 h
[2] = Selectivity index, ratio of IC50 for rat L6 cells to IC50 for Trypanosoma brucei rhodesiense STIB 900 bloodstream forms; type: toxicity; settings: read-out: Ratio IC50
L6 = test: Cytotoxicity against rat L6 cells after 72 hrs by alamar blue staining based fluorescence assay; type: cell-based; settings: L6, 72 h

| IC50 [1] | Structure (SMILES) | selectivity ratio [2] | IC50 (L6) |
| --- | --- | --- | --- |
| 1.7 µM | C=C1C(=O)O[C@@H]2/C=C(/C)[C@@H](OC(C)=O)C/C=C(\C)C[C@@H](OC(=O)/C(C)=C/CO)[C@@H]12 | 4.6 | 7.94 µM |
| 2.6 µM | C=C1C(=O)O[C@@H]2/C=C(\C)[C@@H](O)C/C=C(\C)C[C@@H](OC(=O)/C(=C/COC(=O)C(O)C(C)C)CO)[C@@H]12 (stereo not given in full) | 13 | 34.1 µM |
| 0.35 µM | C=C1C(=O)O[C@@H]2/C=C(/C)[C@@H](OC(C)=O)C/C=C(\C)C[C@@H](OC(=O)C3=CC(O)OC3)[C@@H]12 (stereo not given in full) | 11.5 | 4.1 µM |
| 0.9 µM | C=C1C(=O)O[C@@H]2/C=C(/C)[C@@H]3C/C=C(/C[C@@H](OC(=O)/C(=C/CO)CO)[C@@H]12)C[C@@](O)(C(C)C)C(=O)O3 | 4.1 | 3.8 µM |
| 1.7 µM | C=C1C(=O)O[C@@H]2/C=C(/C)[C@@H](OC(C)=O)C/C=C(\C)C[C@@H](OC(=O)/C(=C\CO)CO)[C@@H]12 | 31.1 | 54.6 µM |
| 4 µM | C=C1C(=O)O[C@@H]2/C=C(\C)[C@@H](O)C/C=C(\C)C[C@@H](OC(=O)/C(=C/COC(=O)C(O)C(C)CC)CO)[C@@H]12 (stereo not given in full) | 10.5 | 42.3 µM |
| 0.1 µM | C=C1C(=O)O[C@@H]2/C=C(/C)[C@@H](OC(C)=O)C/C=C(\C)C[C@@H](OC(=O)c3ccoc3)[C@@H]12 | 20.5 | 2.1 µM |
| 0.6 µM | C=C1C(=O)O[C@H]2[C@H]1[C@H](OC(=O)/C(=C/CO)CO)CC(=C)[C@@H]1CC(=O)C(C)[C@H]21 (stereo not given in full) | 19.2 | 12.3 µM |
| 1.1 µM | C=C1C(=O)O[C@@H]2/C=C(/C)[C@@H](OC(C)=O)C/C=C(\C)C[C@@H](OC(=O)/C(=C/CO)CO)[C@@H]12 | 6.9 | 7.8 µM |
| 0.39 µM | C=C1C(=O)O[C@@H]2C3O[C@]3(C)CC/C=C(\C)CC[C@@H]12 (stereo not given in full) | 18.6 | 7.2 µM |
| 0.82 µM | C=C1C(=O)O[C@@H]2/C=C(/C)[C@@H](OC(=O)C(O)C(C)C)C/C=C(\C)C[C@@H](OC(=O)/C(=C/CO)CO)[C@@H]12 (stereo not given in full) | 13.4 | 11 µM |
| 5.4 µM | C=C1C(=O)O[C@@H]2/C=C(\C)[C@@H](O)C/C=C(\C)C[C@@H](OC(=O)/C(C)=C/CO)[C@@H]12 | 9.6 | 51.7 µM |
| 0.92 µM | C=C1C(=O)O[C@@H]2/C=C(/C)[C@@H](OC(C)=O)C[C@H]3O[C@]3(C)C[C@@H](OC(=O)/C(=C/CO)CO)[C@@H]12 | 15.8 | 14.6 µM |
| 2.7 µM | C=C1C(=O)O[C@H]2[C@H]1[C@H](OC(=O)/C(=C/COC(=O)C(O)C(C)C)CO)C[C@]1(C)[C@@H]2[C@H](C)C(=O)C[C@H]1O (stereo not given in full) | 14.6 | 39.7 µM |
| 0.91 µM | C=C1C(=O)O[C@@H]2/C=C(/C)[C@@H](O)C[C@H]3O[C@]3(C)C[C@@H](OC(=O)/C(=C/COC(=O)C(O)C(C)C)CO)[C@@H]12 (stereo not given in full) | 15.8 | 14.4 µM |
| 0.13 µM | C=C1C(=O)O[C@@H]2/C=C(/C)[C@@H](OC(=O)C(O)C(C)C)C/C=C(\C)C[C@@H](OC(=O)c3ccoc3)[C@@H]12 (stereo not given in full) | 29.7 | 3.9 µM |
| 9.8 µM | COc1cc(CCCO)cc(O)c1OC | 15.2 | 149 µM |
| 6.1 µM | COc1ccc(-c2cc(=O)c3c(O)c(OC)c(O)cc3o2)cc1 [PECTOLINARIGENIN] | 3.3 | 20.2 µM |
| 7.3 µM | C=C1C[C@@H](OC(=O)/C(=C/CO)CO)[C@H]2C(=C)C(=O)O[C@@H]2[C@H]2C(C)=C[C@@H](O)[C@@H]12 | 5.9 | 42.8 µM |

| Structure (SMILES) | IC50 [1] | selectivity ratio [2] | IC50 (L6) |
| --- | --- | --- | --- |
| C=C1C(=O)O[C@@H]2/C=C(\C)CC/C=C(\C)C[C@@H](OC(=O)/C(=C/CO)CO)[C@@H]12 | 1.2 to 1.4 µM | 11.1 | 15.5 µM |
